Where “and” joins values, the source holds several entries; their conditions need not be identical. Equal entries are not always repeated.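 48-hour exposure; five concentrations; linearly interpolated endpoints. Abbreviation: GI50, concentration required for 50% inhibition of growth. TGI is the concentration that stops growth completely.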
Columns and labels:
Assay in all cases: NCI-60 cell line screen, 48 h
[1] = system: PC-3 prostate
[2] = system: MCF7 breast
[3] = system: NCI/ADR-RES ovarian
[4] = system: MDA-MB-435
[5] = system: LXFL 529 NSCLC
[6] = system: DMS 273 small cell lung
[7] = system: SNB-78 CNS
[8] = system: HOP-18 NSCLC
[9] = system: M19-MEL melanoma
[10] = system: DLD-1 colon

Row | Compound | GI50 [1] | TGI [1] [µM] | GI50 [2] [nM] | TGI [2] [µM] | GI50 [3] [µM] | TGI [3] [µM] | GI50 [4] [µM] | TGI [4] | TGI [5] [µM] | TGI [6] [µM] | TGI [7] [µM] | TGI [8] [µM] | TGI [9] [µM] | TGI [10] [µM]
1 | CC(C)c1ccc(C(C)C(=O)N(CC2=C(C(C)c3ccccn3)c3ccccc3C2)C(C)C)cc1 (stereo not given) | 2.66 µM | > 100 | 3230 | 11.4 | 2.67 | 19.2 | 3.73 | 55.6 µM |  |  |  |  |  | 
2 | Oc1ccc(Cl)cc1-c1cc(-c2ccccc2Cl)[nH]n1 | 3.02 µM | > 100 | 362 | > 100 | 8.55 | > 100 | 8.44 | > 100 µM |  |  |  |  |  | 
3 | O=C(O)CCSC(=O)Nc1cccc(F)c1 |  |  |  |  |  |  |  |  | > 100 | > 100 | > 100 |  |  | 
4 | COC(=O)Nc1nc2ccc(S(=O)c3ccccc3)cc2[nH]1 (stereo not given) | 6.75 µM | > 100 | 3120 | > 100 | 3.81 | > 100 | 1.26 | 3.94 µM |  |  |  |  |  | 
5 | CC1=C(C(=O)Nc2ccc(F)c(Cl)c2)C(c2ccc(Cl)cc2)NC(=O)N1 (stereo not given) | 15.1 µM | 31.9 | 18400 | 44.9 | 25.4 | 75.2 | 22.8 | 56.4 µM |  |  |  |  |  | 
6 | C[C@@H](CS(C)(=O)=O)Nc1ncc2cc(Oc3ccc(F)cc3F)c(=O)n(C)c2n1 | > 25 µM | > 25 | > 25000 | > 25 | > 25 | > 25 | > 25 | > 25 µM |  |  |  |  |  | 
7 | CC(=O)[O][Hg][c]1c(N)c(C)cc(C)c1F | 2.03 µM | 6.61 | 665 | 2.99 | 3.48 | 23.6 | 1.48 | 2.96 µM |  |  |  |  |  | 
8 | COc1cc2nc(C)nc(N[C@H](C)c3cc(N)cc(C(F)(F)F)c3)c2cc1O[C@H]1CCOC1 | 10.4 µM | 23.4 | 12900 | 31.3 | 18.3 | 60.9 | 16.8 | 30.5 µM |  |  |  |  |  | 
9 | N#CC(C#N)=c1ccc(=C2NCC3CCCN23)cc1 (stereo not given) |  |  |  |  |  |  |  |  | > 100 | > 100 | > 100 | > 100 | > 100 | 
10 | O=C1c2cccnc2-c2nc(-c3ccccc3[N+](=O)[O-])cc3c2c1nc1ccccc13 | 19.5 µM | 69.1 | 3250 | 15.4 | 22.3 | > 69.3 | 7.1 | 22.2 µM |  |  |  |  |  | 
11 | COc1ccc(C2=CSc3cc(Cl)c(C)cc3S(=O)(=O)N2C(C)=O)cc1 | 21.8 µM | 82.1 | 46200 | > 100 | 26.8 | 66.7 | 28.6 | 87.8 µM |  |  |  |  |  | 
12 | Cc1nc2c(nc1C)C(=O)c1ccccc1C2=O |  | 30.3 |  | 3.59 |  | 17.1 |  | 0.365 µM | > 58.3 | 15.3 | > 94.2 | 9.53 | 1.07 | 47.9
13 | CC(=O)N1[C@H](C(=O)O)CS[C@H]1c1ccncc1 |  |  |  |  |  |  |  |  | > 100 |  | > 100 | > 100 | > 100 | > 100
14 | Cc1cnc(NC(=O)C(Cc2ccccc2)NC(=O)c2ccccc2)s1 (stereo not given) |  |  | 1550 | 5.12 | 4.49 | 69.2 | 3.02 | 15.6 µM |  |  |  |  |  | 
15 | COc1cc(C(=O)/C=C/c2sc(Cl)nc2Cl)cc(OC)c1OC | 1.8 µM | 3.7 | 1780 | 3.68 | 1.97 | 4.07 | 2 | 4.11 µM |  |  |  |  |  | 
16 | CC[C@@]12CCCN3CC[C@]4(c5cccc(OC)c5N(C(C)=O)[C@@H]4CC1)[C@H]32 |  | > 100 |  | > 100 |  | > 100 |  | > 100 µM |  |  |  |  |  | 
17 | COC(=O)[C@@H](C)C[C@H](Cc1ccc(F)cc1)NC(=O)c1csc([C@@H](C[C@H](C(C)C)N(C)C(=O)[C@@H](NC(=O)[C@H]2CCCCN2C)C(C)C)OC(C)=O)n1 | 0.00196 µM and 0.00756 µM | > 16.7 |  | > 16.7 |  | > 16.7 |  | 0.00047 µM and 0.00417 µM |  |  |  |  |  | 
18 | Fc1ccc(Nc2ncnc3ccc(-c4cnc5[nH]ccc5c4)cc23)cc1Cl | 3.54 µM | 27.3 | 335 | > 38 | 2.98 | > 87.8 | 8.66 | > 80.1 µM |  |  |  |  |  | 
19 | NC(CSC(c1ccccc1)(c1ccccc1)c1ccc2c(c1)OCO2)C(=O)O (stereo not given) | 0.521 µM | > 69.6 | 298 | 40.2 | 4.12 | 26.8 |  |  |  |  |  |  |  | 
20 | O=C(O)C(Cc1ccccc1)N1C(=O)N/C(=C\c2ccc(F)cc2)C1=O (stereo not given) |  |  |  |  |  |  |  |  | > 100 | > 100 | > 100 | > 100 | > 100 | > 100
21 | COc1cc2nc(-c3ccc(C(F)(F)F)cc3)cc(OCCCN3CCC(O)CC3)c2cc1OC | 3.66 µM | 19.5 | 2570 | 18.2 | 0.847 | 22.7 | 2.76 | 9.31 µM |  |  |  |  |  | 
22 | CSc1ccccc1C#C/C=C\C#Cc1ccccc1N1CCCC1=O | > 50 µM | > 50 |  | > 50 |  | > 19.9 |  | > 13.9 µM |  |  |  |  |  | 
23 | COC(=O)[C@@]12C3=NO[C@]1(C(=O)OC)C(O[Si](C)(C)C(C)(C)C)[C@H]1OC(C)(C)O[C@H]1[C@@H]2C(OCc1ccccc1)CC3 (stereo not given in full) |  |  |  |  |  |  |  |  | > 100 | > 100 |  | > 100 | > 100 | > 100
24 | Cc1cc2nc(C(Cl)Cl)nc(-c3ccc(Cl)cc3)n2n1 | 1.33 µM | 4.16 | 465 | 5.1 | 0.682 | 3.89 | 1.26 | 2.79 µM |  |  |  |  |  | 
25 | COc1c2ccoc2c(/C=C/C=O)c2oc(-c3ccccc3)cc(=O)c12 | 3.23 µM | > 100 | 2720 | 58.3 | 3.01 | > 100 | 4.83 | > 100 µM |  |  |  |  |  | 
26 | Cc1cc(=O)n2[nH]c(-c3ccc(C(C)(C)C)cc3)cc2n1 | 4.13 µM | 40.6 | 7430 | > 100 | 15.9 | > 100 | 5.44 | > 100 µM |  |  |  |  |  | 
